In BigSolDB 2.1:

OCC1(O)OC[C@@H](O)[C@H](O)[C@@H]1O (stereo not given in full)
solubility (mole fraction)
Conditions | 283.15 K | 288.15 K | 293.15 K | 298.15 K | 303.15 K | 308.15 K | 313.15 K | 318.15 K | 323.15 K
in ethanol | 0.00138 | 0.00168 | 0.00193 | 0.00219 | 0.00245 | 0.00288 | 0.00328 | 0.00395 | 0.00468
in isopropanol | 0.00038 | 0.00041 | 0.0006 | 0.00088 | 0.00121 | 0.0015 | 0.00171 | 0.00211 | 0.00261
in methanol | 0.00414 | 0.00553 | 0.00609 | 0.00758 | 0.00892 | 0.0101 | 0.0121 | 0.0155 | 0.0166
in n-propanol | 0.00038 | 0.00043 | 0.00062 | 0.00088 | 0.00127 | 0.00164 | 0.002 | 0.00238 | 0.00272
in water | 0.0976 | 0.106 | 0.116 | 0.124 | 0.135 | 0.146 | 0.155 | 0.166 | 0.175
